Assay results as given in PubChem BioAssay (NCI).
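Cultured in 96-well plates, cells were exposed to test compound for 48 hours across five concentrations. The concentration for full growth arrest is given as TGI.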

Columns and labels:
Assay in all cases: NCI anticancer screen, dose series, 48 h
NCI/ADR-RES ovarian = test system: NCI/ADR-RES ovarian
SF-268 CNS = test system: SF-268 CNS
UO-31 renal = test system: UO-31 renal
A498 renal = test system: A498 renal
T-47D breast = test system: T-47D breast
CAKI-1 renal = test system: CAKI-1 renal
HOP-62 NSCLC = test system: HOP-62 NSCLC
CCRF-CEM leukemia = test system: CCRF-CEM leukemia
NCI-H460 lung = test system: NCI-H460 lung
MOLT-4 leukemia = test system: MOLT-4 leukemia
M14 melanoma = test system: M14 melanoma
HCT-116 colon = test system: HCT-116 colon
RXF 393 renal = test system: RXF 393 renal
OVCAR-5 ovarian = test system: OVCAR-5 ovarian
SNB-19 CNS = test system: SNB-19 CNS
RPMI-8226 leukemia = test system: RPMI-8226 leukemia
MALME-3M melanoma = test system: MALME-3M melanoma
IGROV1 ovarian = test system: IGROV1 ovarian
786-0 renal = test system: 786-0 renal
EKVX NSCLC = test system: EKVX NSCLC
MDA-MB-435 = test system: MDA-MB-435
HS 578T breast = test system: HS 578T breast
K-562 leukemia = test system: K-562 leukemia
HCC-2998 colon = test system: HCC-2998 colon
HOP-92 NSCLC = test system: HOP-92 NSCLC
SK-MEL-28 melanoma = test system: SK-MEL-28 melanoma
HCT-15 colon = test system: HCT-15 colon
MCF7 breast = test system: MCF7 breast
NCI-H522 lung = test system: NCI-H522 lung
MDA-N = test system: MDA-N
SK-MEL-5 melanoma = test system: SK-MEL-5 melanoma
KM12 colon = test system: KM12 colon
A549 NSCLC = test system: A549 NSCLC
DU-145 prostate = test system: DU-145 prostate
SN12C renal = test system: SN12C renal
OVCAR-4 ovarian = test system: OVCAR-4 ovarian
SK-MEL-2 melanoma = test system: SK-MEL-2 melanoma
ACHN renal = test system: ACHN renal
NCI-H23 lung = test system: NCI-H23 lung
SNB-75 CNS = test system: SNB-75 CNS
SR leukemia = test system: SR leukemia
MDA-MB-231 breast = test system: MDA-MB-231 breast
TK-10 renal = test system: TK-10 renal
UACC-257 melanoma = test system: UACC-257 melanoma
OVCAR-3 ovarian = test system: OVCAR-3 ovarian
HT29 colon = test system: HT29 colon
OVCAR-8 ovarian = test system: OVCAR-8 ovarian
LOX IMVI melanoma = test system: LOX IMVI melanoma
PC-3 prostate = test system: PC-3 prostate
BT-549 breast = test system: BT-549 breast
UACC-62 melanoma = test system: UACC-62 melanoma
U251 CNS = test system: U251 CNS
SK-OV-3 ovarian = test system: SK-OV-3 ovarian
COLO 205 colon = test system: COLO 205 colon
SF-539 CNS = test system: SF-539 CNS
SF-295 CNS = test system: SF-295 CNS
SW-620 colon = test system: SW-620 colon
NCI-H226 lung = test system: NCI-H226 lung

C/C(=C\COc1cc(O)c2c(c1)C(=O)c1cc(C)cc(O)c1C2=O)CCC1OC1(C)C (stereo not drawn)
TGI (NCI/ADR-RES ovarian): > 100 µM
TGI (SF-268 CNS): > 100 µM
TGI (UO-31 renal): > 100 µM
TGI (A498 renal): > 100 µM
TGI (T-47D breast): > 100 µM
TGI (CAKI-1 renal): 96.5 µM
TGI (HOP-62 NSCLC): > 100 µM
TGI (CCRF-CEM leukemia): > 100 µM
TGI (NCI-H460 lung): > 100 µM
TGI (MOLT-4 leukemia): > 100 µM
TGI (M14 melanoma): > 100 µM
TGI (HCT-116 colon): > 100 µM
TGI (RXF 393 renal): 70.8 µM
TGI (OVCAR-5 ovarian): > 100 µM
TGI (SNB-19 CNS): > 100 µM
TGI (RPMI-8226 leukemia): > 100 µM
TGI (MALME-3M melanoma): > 100 µM
TGI (IGROV1 ovarian): > 100 µM
TGI (786-0 renal): > 100 µM
TGI (EKVX NSCLC): > 100 µM
TGI (MDA-MB-435): > 100 µM
TGI (HS 578T breast): > 100 µM
TGI (K-562 leukemia): > 100 µM
TGI (HCC-2998 colon): > 100 µM
TGI (HOP-92 NSCLC): > 100 µM
TGI (SK-MEL-28 melanoma): > 100 µM
TGI (HCT-15 colon): > 100 µM
TGI (MCF7 breast): > 100 µM
TGI (NCI-H522 lung): > 100 µM
TGI (MDA-N): > 100 µM
TGI (SK-MEL-5 melanoma): > 100 µM
TGI (KM12 colon): > 100 µM
TGI (A549 NSCLC): > 100 µM
TGI (DU-145 prostate): > 100 µM
TGI (SN12C renal): > 100 µM
TGI (OVCAR-4 ovarian): > 100 µM
TGI (SK-MEL-2 melanoma): > 100 µM
TGI (ACHN renal): > 100 µM
TGI (NCI-H23 lung): > 100 µM
TGI (SNB-75 CNS): > 100 µM
TGI (SR leukemia): > 100 µM
TGI (MDA-MB-231 breast): > 100 µM
TGI (TK-10 renal): > 100 µM
TGI (UACC-257 melanoma): > 100 µM
TGI (OVCAR-3 ovarian): > 100 µM
TGI (HT29 colon): > 100 µM
TGI (OVCAR-8 ovarian): > 100 µM
TGI (LOX IMVI melanoma): > 100 µM
TGI (PC-3 prostate): > 100 µM
TGI (BT-549 breast): > 100 µM
TGI (UACC-62 melanoma): > 100 µM
TGI (U251 CNS): > 100 µM
TGI (SK-OV-3 ovarian): > 100 µM
TGI (COLO 205 colon): > 100 µM
TGI (SF-539 CNS): > 100 µM
TGI (SF-295 CNS): > 100 µM

O=C1C(c2c(O)[nH]c3ccc([N+](=O)[O-])cc23)=Nc2ccccc21
TGI (NCI/ADR-RES ovarian): > 100 µM
TGI (SF-268 CNS): > 100 µM
TGI (UO-31 renal): > 100 µM
TGI (A498 renal): > 100 µM
TGI (T-47D breast): > 100 µM
TGI (CAKI-1 renal): > 100 µM
TGI (HOP-62 NSCLC): > 100 µM
TGI (CCRF-CEM leukemia): > 100 µM
TGI (NCI-H460 lung): > 100 µM
TGI (MOLT-4 leukemia): > 100 µM
TGI (M14 melanoma): > 100 µM
TGI (HCT-116 colon): > 100 µM
TGI (RXF 393 renal): 42.2 µM
TGI (OVCAR-5 ovarian): > 100 µM
TGI (SNB-19 CNS): > 100 µM
TGI (RPMI-8226 leukemia): > 100 µM
TGI (MALME-3M melanoma): > 100 µM
TGI (IGROV1 ovarian): > 100 µM
TGI (786-0 renal): > 100 µM
TGI (EKVX NSCLC): > 100 µM
TGI (MDA-MB-435): > 100 µM
TGI (HS 578T breast): > 100 µM
TGI (K-562 leukemia): > 100 µM
TGI (HCC-2998 colon): > 100 µM
TGI (HOP-92 NSCLC): > 100 µM
TGI (SW-620 colon): > 100 µM
TGI (SK-MEL-28 melanoma): > 100 µM
TGI (HCT-15 colon): > 100 µM
TGI (MCF7 breast): > 100 µM
TGI (NCI-H522 lung): > 100 µM
TGI (MDA-N): > 100 µM
TGI (SK-MEL-5 melanoma): > 100 µM
TGI (KM12 colon): > 100 µM
TGI (A549 NSCLC): > 100 µM
TGI (DU-145 prostate): > 100 µM
TGI (SN12C renal): > 100 µM
TGI (OVCAR-4 ovarian): > 100 µM
TGI (SK-MEL-2 melanoma): > 100 µM
TGI (ACHN renal): > 100 µM
TGI (NCI-H23 lung): > 100 µM
TGI (SNB-75 CNS): 34.2 µM
TGI (SR leukemia): > 100 µM
TGI (MDA-MB-231 breast): 91.2 µM
TGI (TK-10 renal): 70.9 µM
TGI (NCI-H226 lung): > 100 µM
TGI (UACC-257 melanoma): > 100 µM
TGI (OVCAR-3 ovarian): > 100 µM
TGI (HT29 colon): > 100 µM
TGI (OVCAR-8 ovarian): > 100 µM
TGI (LOX IMVI melanoma): > 100 µM
TGI (PC-3 prostate): > 100 µM
TGI (BT-549 breast): > 100 µM
TGI (UACC-62 melanoma): > 100 µM
TGI (U251 CNS): 49.8 µM
TGI (SK-OV-3 ovarian): > 100 µM
TGI (COLO 205 colon): > 100 µM
TGI (SF-295 CNS): > 100 µM
